Measured values published in patent US20240109885A1, “2,3-DIHYDRO-1H-PYRROLO[3,2-B]PYRIDINE DERIVATIVE, PREPARATION METHOD THEREFOR, AND APPLICATION THEREOF” (Abbisko Therapeutics Co., Ltd, priority 2020, published 2024).

Assays:
Type in all cases: cell-based
A431 (EGFR-WT) = experiment: Cell proliferation assay (CellTiter-Glo), A431 cells; details: Homo sapiens, A-431, 72 hrs, CTG assay, * = average of multiple measurements
Procedure: (§1) I. Cell proliferation assay (i) Reagents and consumables • Fetal bovine serum (FBS) (GBICO, Cat #10099-141); • CellTiter-Glo® Luminescent Cell Viability Assay Kit (Promega, Cat #G7572); • Black transparent flat-bottomed 96-well plate (Corning®, Cat #3603).
(§2) • SpectraMax Multi-Label Microplate Detector MD, 2104-0010A; • CO2 incubator, Thermo Scientific 3100 Series; • Biosafety cabinet, Thermo Scientific, 1300 Series type A2; • Inverted microscope, Olympus, CKX41SF; • Siemens refrigerator KK25E76TI. (iii) Cell lines and culture conditions
(§3) (iv) Experimental procedures 1. Cell culture and seeding: • (1) Cells in the logarithmic growth phase were harvested, and counted using a platelet counter. Cell viability was detected by the trypan blue exclusion assay to ensure that the cell viability was above 90%. • (2) The cell concentration was adjusted to achieve the final density; and 90 μL of the cell suspension was added to the 96-well plate. • (3) The cells were incubated in the 96-well plate overnight at 37° C. in the presence of 5% CO2 with 95% humidity. 2. TO benchmark data: • (1) 10 μL of PBS was added to each well of the TO flat plate containing the cells. • (2) The CTG reagent was thawed, and the cell plate was equilibrated to room temperature for 30 min. • (3) An equal volume of CTG solution was added to each well. • (4) The cells were shaken for 5 min on an orbital shaker for lysis. • (5) The cell plate was left at room temperature for 20 min to stabilize luminescent signals. • (6) The values of TO luminescent signals were read. 3. Compound dilution and addition • (1) According to the compound information table, a corresponding volume of DMSO was added to the corresponding compound powder to prepare a 10 mM stock solution. • (2) Compound solutions diluted at 1000 fold and 3.16 fold were prepared. • (3) The compound solution diluted at 1000 fold was diluted at 100 fold with PBS, to prepare the compound solutions at 10 fold in 9 concentrations, with the maximum concentration of […]; and the compound solution was diluted at 3.16 fold. 10 μL of medicament solution was added to each well of the seeded 96-well plate. Three replicate wells were provided for each concentration of the compound, and the final concentration of DMSO was 0.1%. • (4) Cells were placed in the 96-well plate containing the medicament and subsequently cultured for 72 hrs at 37° C. in the presence of 5% CO2 with 95% humidity, and then, CTG assay was conducted. 4. Reading of luminescent signals • (1) The CTG reagent was thawed, and the cell plate was equilibrated to room temperature for 30 min. • (2) An equal volume of CTG solution was added to each well. • (3) The cells were shaken for 5 min on an orbital shaker for lysis.
(§4) (4) The cell plate was left at room temperature for 20 min to stabilize the luminescent signals. • (5) Luminescent values were read. Data processing
(§5) The data were analyzed using software GraphPad Prism 7.0, and fitted by the nonlinear S-curve regression to obtain a dose-effect curve, based on which the IC50 value (unit: nM) was calculated, with the specific test results shown in Table 1.
(§6) Cell viability (%)=(Lum test medicament-Lum culture medium control)/(Lum cell control-Lum culture medium control)×100%.

[1] = target: Ba/F3 EGFR-D770-N771ins_SVD (Homo sapiens, UniProt P00533, DUP768-770, cells depend on it); experiment: Cell proliferation assay (CellTiter-Glo), Ba/F3 EGFR-D770-N771ins_SVD cells; details: 72 hrs, CTG assay, * = average of multiple measurements, read-out: Ba/F3 EGFR-D770-N771ins_SVD (nM), IC50 of cell proliferation
Procedure: as §1, §2, §3, §4, §5, §6

[2] = target: Ba/F3 EGFR-V769_D770insASV (Homo sapiens, UniProt P00533, DUP767-769, cells depend on it); experiment: Cell proliferation assay (CellTiter-Glo), Ba/F3 EGFR-V769_D770insASV cells; details: 72 hrs, CTG assay, * = average of multiple measurements, read-out: Ba/F3 EGFR-V769_D770insASV (nM), IC50 of cell proliferation
Procedure: as §1, §2, §3, §4, §5, §6

Ba/F3 EGFR-V769_D770insASV, sequence (P00533 with tags, fused parts or gaps DUP767-769): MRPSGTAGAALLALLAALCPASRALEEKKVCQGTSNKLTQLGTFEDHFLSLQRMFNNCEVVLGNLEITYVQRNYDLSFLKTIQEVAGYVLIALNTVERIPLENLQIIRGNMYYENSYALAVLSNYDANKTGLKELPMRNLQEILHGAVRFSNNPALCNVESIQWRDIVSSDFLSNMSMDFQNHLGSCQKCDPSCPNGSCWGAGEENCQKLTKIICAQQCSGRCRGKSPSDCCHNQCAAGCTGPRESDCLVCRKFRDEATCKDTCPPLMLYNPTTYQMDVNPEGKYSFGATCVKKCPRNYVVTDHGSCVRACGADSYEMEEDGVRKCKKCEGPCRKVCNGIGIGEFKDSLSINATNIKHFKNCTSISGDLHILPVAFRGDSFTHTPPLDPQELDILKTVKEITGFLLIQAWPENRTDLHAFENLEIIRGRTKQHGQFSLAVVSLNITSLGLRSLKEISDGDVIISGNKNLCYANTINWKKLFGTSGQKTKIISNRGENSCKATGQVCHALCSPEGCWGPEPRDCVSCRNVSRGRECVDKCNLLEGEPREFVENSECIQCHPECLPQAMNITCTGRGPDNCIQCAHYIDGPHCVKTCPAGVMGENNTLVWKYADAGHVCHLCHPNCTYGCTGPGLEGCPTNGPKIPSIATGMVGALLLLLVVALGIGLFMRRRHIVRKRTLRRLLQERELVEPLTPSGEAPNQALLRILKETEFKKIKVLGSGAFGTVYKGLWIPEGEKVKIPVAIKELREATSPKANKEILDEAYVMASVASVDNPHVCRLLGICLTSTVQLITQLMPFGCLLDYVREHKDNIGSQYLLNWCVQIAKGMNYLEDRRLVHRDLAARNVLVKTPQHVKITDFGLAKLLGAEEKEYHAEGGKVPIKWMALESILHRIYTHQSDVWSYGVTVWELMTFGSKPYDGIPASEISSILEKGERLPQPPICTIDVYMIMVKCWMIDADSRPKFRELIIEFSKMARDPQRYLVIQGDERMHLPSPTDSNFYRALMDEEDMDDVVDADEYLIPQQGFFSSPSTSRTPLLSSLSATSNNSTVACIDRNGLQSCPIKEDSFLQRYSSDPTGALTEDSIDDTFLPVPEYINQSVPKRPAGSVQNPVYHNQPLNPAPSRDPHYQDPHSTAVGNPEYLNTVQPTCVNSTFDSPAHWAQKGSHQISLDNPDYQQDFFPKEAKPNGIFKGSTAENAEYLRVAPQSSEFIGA
Ba/F3 EGFR-D770-N771ins_SVD, sequence (P00533 with tags, fused parts or gaps DUP768-770): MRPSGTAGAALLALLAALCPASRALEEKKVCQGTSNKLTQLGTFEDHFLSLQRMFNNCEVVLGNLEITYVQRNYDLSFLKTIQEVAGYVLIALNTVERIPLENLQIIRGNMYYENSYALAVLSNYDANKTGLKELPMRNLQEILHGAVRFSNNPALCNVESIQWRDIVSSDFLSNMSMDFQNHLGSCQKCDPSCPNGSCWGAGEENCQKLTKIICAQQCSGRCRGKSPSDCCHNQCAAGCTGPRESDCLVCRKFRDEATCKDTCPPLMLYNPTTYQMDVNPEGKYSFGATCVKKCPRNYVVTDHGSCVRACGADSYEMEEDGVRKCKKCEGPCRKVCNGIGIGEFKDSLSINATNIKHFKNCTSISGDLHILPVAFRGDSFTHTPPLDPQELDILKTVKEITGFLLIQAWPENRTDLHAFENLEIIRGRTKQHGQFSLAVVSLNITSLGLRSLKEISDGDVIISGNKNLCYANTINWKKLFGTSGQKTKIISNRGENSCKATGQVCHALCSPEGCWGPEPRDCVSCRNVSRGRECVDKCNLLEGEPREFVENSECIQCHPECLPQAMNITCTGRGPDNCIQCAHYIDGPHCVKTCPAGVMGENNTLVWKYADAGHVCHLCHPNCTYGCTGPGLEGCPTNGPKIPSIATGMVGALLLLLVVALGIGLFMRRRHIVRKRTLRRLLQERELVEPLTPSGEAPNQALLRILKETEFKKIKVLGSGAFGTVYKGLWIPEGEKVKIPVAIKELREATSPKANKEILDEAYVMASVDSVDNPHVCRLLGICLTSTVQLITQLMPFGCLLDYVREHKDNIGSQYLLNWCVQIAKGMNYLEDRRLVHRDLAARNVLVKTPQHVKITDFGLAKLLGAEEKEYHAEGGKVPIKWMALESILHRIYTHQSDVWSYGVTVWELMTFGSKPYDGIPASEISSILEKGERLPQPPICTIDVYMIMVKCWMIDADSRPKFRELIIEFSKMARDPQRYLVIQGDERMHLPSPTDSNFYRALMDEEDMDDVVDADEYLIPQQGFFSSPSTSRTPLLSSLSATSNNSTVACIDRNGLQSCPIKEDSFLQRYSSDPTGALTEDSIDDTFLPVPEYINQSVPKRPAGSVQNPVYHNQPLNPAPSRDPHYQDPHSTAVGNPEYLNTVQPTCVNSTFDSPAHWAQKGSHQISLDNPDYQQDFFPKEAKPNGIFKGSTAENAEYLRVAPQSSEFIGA

SMILES | IC50 (A431 (EGFR-WT)) | GI50 [1] | GI50 [2]
C=CC(=O)Nc1cc(Nc2ncnc(N3CC(C)(C)c4nc(Cl)c(C)cc43)n2)c(OC)cc1N(C)CCN(C)C [Example 34, N-(5-((4-(5-chloro-3,3,6-trimethyl-2,3-dihydro-1H-pyrrolo[3,2-b]pyridin-1-yl)-1,3,5-triazin-2-yl)amino)-2-((2-(dimethylamino)ethyl) (methyl)amino)-4-methoxyphenyl) acrylamide] | 47.7 nM | 22.5 nM | 68.4 nM
C=CC(=O)Nc1cc(Nc2nccc(N3CC(C)(C)c4nc(-c5cnn(C)c5)ccc43)n2)c(OC)cc1N(C)CCN(C)C [Example 50, N-(5-((4-(3,3-dimethyl-5-(1-methyl-1H-pyrazol-4-yl)-2,3-dihydro-1H-pyrrolo[3,2-b]pyridin-1-yl)pyrimidin-2-yl)amino)-2-((2-(dimethylamino)ethyl)(methyl)amino)-4-methoxyphenyl)acrylamide] | 82.4 nM | 14.6 nM | 32.1 nM
C=CC(=O)Nc1cc(Nc2nccc(N3CC4(CCC4)c4nc(C)ccc43)n2)c(OCC(F)(F)F)nc1N(C)CCN(C)C [Example 56, N-(2-((2-(dimethylamino)ethyl) (methyl)amino)-5-((4-(5′-methylspiro [cyclobutane-1,3′-pyrrolo[3,2-b]pyridin]-1′(2′H)-yl)pyrimidin-2-yl)amino)-6-(2,2,2-trifluoroethoxy)pyridin-3-yl)acrylamide] | 348 nM | 12 nM | 35.4 nM
C=CC(=O)Nc1cc(Nc2ncnc(N3CC4(CCC4)c4nc(C)ccc43)n2)c(OC)cc1N(C)CCN(C)C [Example 61, N-(2-((2-(dimethylamino)ethyl) (methyl)amino)-4-methoxy-5-((4-(5′-methylspiro[cyclobutane-1,3′-pyrrolo[3,2-b]pyridin]-1′(2′H)-yl)-1,3,5-triazin-2-yl)amino)phenyl) acrylamide] | 18.7 nM | 14.1 nM | 46.4 nM
C=CC(=O)Nc1cc(Nc2ncnc(N3CC(C)(C)c4nc(C)ccc43)n2)c(OC)cc1N(C)CCN(C)C [Example 8, N-(2-((2-(dimethylamino)ethyl) (methyl)amino)-4-methoxy-5-((4-(3,3,5-trimethyl-2,3-dihydro-1H-pyrrolo[3,2-b]pyridin-1-yl)-1,3,5-triazin-2-yl)amino)phenyl)acrylamide] | 71.8 nM | 12.5 nM | 17.9 nM
C=CC(=O)Nc1cc(Nc2ncnc(N3CC4(CCC4)c4ncccc43)n2)c(OC)cc1N(C)CCN(C)C [Example 55, N-(2-((2-(dimethylamino)ethyl) (methyl)amino)-4-methoxy-5-((4-(spiro[cyclobutane-1,3′-pyrrolo[3,2-b]pyridin]-1′(2′H)-yl)-1,3,5-triazin-2-yl)amino)phenyl)acrylamide] | 312 nM | 23.8 nM | 47 nM
C=CC(=O)Nc1cc(Nc2nccc(N3CC4(CCC4)c4ncccc43)n2)c(OCC(F)(F)F)nc1N(C)CCN(C)C [Example 57, N-(2-((2-(dimethylamino)ethyl) (methyl)amino)-5-((4-(spiro[cyclo-butane-1,3′-pyrrolo[3,2-b]pyridin]-1′(2′H)-yl)pyrimidin-2-yl)amino)-6-(2,2,2-trifluoroethoxy)pyridin-3-yl)acrylamide] | 673 nM | 32.7 nM | 79.7 nM
C=CC(=O)Nc1cc(Nc2ncnc(N3CC(C)(C)c4nc(Cl)ccc43)n2)c(OC)cc1N(C)CCN(C)C [Example 22, N-(5-((4-(5-chloro-3,3-dimethyl-2,3-dihydro-1H-pyrrolo[3,2-b]pyridin-1-yl)-1,3,5-triazin-2-yl)amino)-2-((2-(dimethylamino)ethyl) (methyl)amino)-4-methoxyphenyl) acrylamide] | 121 nM | 15.6 nM | 58.2 nM
C=CC(=O)Nc1cc(Nc2nccc(N3CC(C)(C)c4nc(C5CC5)ccc43)n2)c(OC)cc1N(C)CCN(C)C [Example 17, N-(5-((4-(5-cyclopropyl-3,3-dimethyl-2,3-dihydro-1H-pyrrolo[3,2-b]pyridin-1-yl)pyrimidin-2-yl)amino)-2-((2-(dimethylamino)ethyl) (methyl)amino)-4-methoxyphenyl) acrylamide] | 125 nM | 33.9 nM | 54.6 nM
C=CC(=O)Nc1cc(Nc2cc(N3CC(C)(C)c4nc(C)ccc43)ncn2)c(OC)cc1N(C)CCN(C)C [Example 11, N-(2-((2-(dimethylamino)ethyl) (methyl)amino)-4-methoxy-5-((6-(3,3,5-trimethyl-2,3-dihydro-1H-pyrrolo[3,2-b]pyridin-1-yl)pyrimidin-4-yl)amino)phenyl)acrylamide] | 293 nM | 40.4 nM | 73.9 nM
C=CC(=O)Nc1cc(Nc2cc(N3CC(C)(C)c4ncccc43)ncn2)c(OC)cc1N1CCC[C@@H]1CN(C)C [Example 12, (R)-N-(5-((6-(3,3-dimethyl-2,3-dihydro-1H-pyrrolo[3,2-b]pyridin-1-yl)pyrimidin-4-yl)amino)-2-(2-((dimethylamino)methyl)pyrrolidin-1-yl)-4-methoxyphenyl)acrylamide] | 89.9 nM | 35.3 nM | 70.8 nM

Other lines, results leading:

IC50 (A431 (EGFR-WT)) | GI50 [1] | GI50 [2] | SMILES
11.1 nM | 13 nM | 33 nM | C=CC(=O)Nc1cc(Nc2ncnc(N3CC4(CCCCC4)c4nc(C)ccc43)n2)c(OC)cc1N(C)CCN(C)C [Example 31, N-(2-((2-(dimethylamino)ethyl) (methyl)amino)-4-methoxy-5-((4-(5′-methylspiro[cyclohexane-1,3′-pyrrolo[3,2-b]pyridin]-1′(2′H)-yl)-1,3,5-triazin-2-yl)amino)phenyl)acrylamide]
96.9 nM | 14.8 nM | 26.3 nM | C=CC(=O)Nc1cc(Nc2nccc(N3CC4(CCC4)c4nc(C)ccc43)n2)c(OC)nc1N(C)CCN(C)C [Example 53, N-(2-((2-(dimethylamino)ethyl) (methyl)amino)-6-methoxy-5-((4-(5′-methylspiro[cyclobutane-1,3′-pyrrolo[3,2-b]pyridin]-1′(2′H)-yl)pyrimidin-2-yl)amino)pyridin-3-yl) acrylamide]
264 nM | 35.5 nM | 84.3 nM | C=CC(=O)Nc1cc(Nc2nccc(N3CC4(CCCC4)c4nc(C)ccc43)n2)c(OC)cc1N(C)CCN(C)C [Example 33, N-(2-((2-(dimethylamino)ethyl) (methyl)amino)-4-methoxy-5-((4-(5′-methylspiro[cyclopentane-1,3′-pyrrolo[3,2-b]pyridin]-1′(2′H)-yl)pyrimidin-2-yl)amino)phenyl)acrylamide]
396 nM | 24.9 nM | 35.8 nM | C=CC(=O)Nc1cc(Nc2nccc(N3CC4(CCCC4)c4nc(C)ccc43)n2)c(OC(F)F)cc1N(C)CCN(C)C [Example 39, N-(4-(difluoromethoxy)-2-((2-(dimethylamino)ethyl)(methyl)amino)-5-((4-(5′-methylspiro[cyclo-pentane-1,3′-pyrrolo[3,2-b]pyridin]-1′(2′H)-yl)pyrimidin-2-yl)amino)phenyl)acrylamide]
532 nM | 39.6 nM | 116 nM | C=CC(=O)Nc1cc(Nc2nccc(N3CC4(CCC4)c4ncccc43)n2)c(OC)cc1N(C)CCN(C)C [Example 63, N-(2-((2-(dimethylamino)ethyl) (methyl)amino)-4-methoxy-5-((4-(spiro[cyclobutane-1,3′-pyrrolo [3,2-b]pyridin]-1′(2′H)-yl)pyrimidin-2-yl)amino)phenyl)acrylamide]
